The values that follow come from patent publication US9199963B2, “Heterocyclic compound” (Takeda Pharmaceutical Company Limited, priority 2013, dated 2015).

The target in one data set is T1, human MCHR1 (Homo sapiens, UniProt Q99705).
T1 construct: expressed in transfected cells; host or cells: CHO dhfr- cells, clone #4
The data set can be described thus: MCH receptor 1 antagonistic activity using Ca2+ mobilization assay. The format is cell-based. The note with it: test compound 0.1 μM; ligand MCH (4-19) 2 nM; human MCHR1-expressing CHO cells (clone #4); read-out: Inhibition rate % (0.1 μM). How it is done:
Measurement of MCH Receptor 1 Antagonistic Activity of Test Compound Using Ca^2+ Mobilization Assay
Using an expression vector plasmid introduced with human MCHR1 gene for expression in animal cells, human MCHR1 gene was introduced into CHO cells (CHO dhfr^−) by Lipofectamine LTX (Invitrogen). The cells were cultured in selection MEMα medium [445 mL of MEMα medium without nucleic acid and added with 5 mL of Penicillin-Streptomycin (Invitrogen) and 50 mL of dialyzed fetal bovine serum]. Colony 24 clones grown in the selection medium, which were human MCHR1 gene-expressing CHO cell candidates, were selected. […] An integrated dispensing function fluorometer (CellLux, PerkinElmer) was used for Ca^2+ mobilization assay. […] The medium was removed, and the cells were washed with phosphate buffered saline (PBS). A Ca^2+ indicator dye reagent (DOJINDO LABORATORIES, Ca screening no-wash kit Fluo4) was added at 100 μL/well, and the dye was allowed to penetrate into the cells for 30 min in an incubator at 5% CO2, 37° C. The plate was set on a plate reader. First, a test compound solution diluted with an assay buffer [10 mM HEPES (pH 7.4), 1× assay buffer containing 0.1% BSA (DOJINDO LABORATORIES, attached to Ca screening no-wash kit Fluo4)] or DMSO solution was added at 50 μL/well, and then ligand MCH (4-19) peptide (final concentration 2 nM) diluted with assay buffer or DMSO was added at 50 μL/well, during which changes in intracellular fluorescence were measured at 2 second intervals.
A general note: Calcium assays in cells follow changes in intracellular calcium, usually with a dye or a luminescent sensor.

In a further data set the target is hERG (Homo sapiens, UniProt Q12809). The data set can be described thus: hERG activity measurement by IonWorks Quattro. It is filed as cell-based. Particulars: 5 minutes exposure, hERG stably expressed in CHO cells (CYL3038).
hERG, sequence (Q12809 whole entry): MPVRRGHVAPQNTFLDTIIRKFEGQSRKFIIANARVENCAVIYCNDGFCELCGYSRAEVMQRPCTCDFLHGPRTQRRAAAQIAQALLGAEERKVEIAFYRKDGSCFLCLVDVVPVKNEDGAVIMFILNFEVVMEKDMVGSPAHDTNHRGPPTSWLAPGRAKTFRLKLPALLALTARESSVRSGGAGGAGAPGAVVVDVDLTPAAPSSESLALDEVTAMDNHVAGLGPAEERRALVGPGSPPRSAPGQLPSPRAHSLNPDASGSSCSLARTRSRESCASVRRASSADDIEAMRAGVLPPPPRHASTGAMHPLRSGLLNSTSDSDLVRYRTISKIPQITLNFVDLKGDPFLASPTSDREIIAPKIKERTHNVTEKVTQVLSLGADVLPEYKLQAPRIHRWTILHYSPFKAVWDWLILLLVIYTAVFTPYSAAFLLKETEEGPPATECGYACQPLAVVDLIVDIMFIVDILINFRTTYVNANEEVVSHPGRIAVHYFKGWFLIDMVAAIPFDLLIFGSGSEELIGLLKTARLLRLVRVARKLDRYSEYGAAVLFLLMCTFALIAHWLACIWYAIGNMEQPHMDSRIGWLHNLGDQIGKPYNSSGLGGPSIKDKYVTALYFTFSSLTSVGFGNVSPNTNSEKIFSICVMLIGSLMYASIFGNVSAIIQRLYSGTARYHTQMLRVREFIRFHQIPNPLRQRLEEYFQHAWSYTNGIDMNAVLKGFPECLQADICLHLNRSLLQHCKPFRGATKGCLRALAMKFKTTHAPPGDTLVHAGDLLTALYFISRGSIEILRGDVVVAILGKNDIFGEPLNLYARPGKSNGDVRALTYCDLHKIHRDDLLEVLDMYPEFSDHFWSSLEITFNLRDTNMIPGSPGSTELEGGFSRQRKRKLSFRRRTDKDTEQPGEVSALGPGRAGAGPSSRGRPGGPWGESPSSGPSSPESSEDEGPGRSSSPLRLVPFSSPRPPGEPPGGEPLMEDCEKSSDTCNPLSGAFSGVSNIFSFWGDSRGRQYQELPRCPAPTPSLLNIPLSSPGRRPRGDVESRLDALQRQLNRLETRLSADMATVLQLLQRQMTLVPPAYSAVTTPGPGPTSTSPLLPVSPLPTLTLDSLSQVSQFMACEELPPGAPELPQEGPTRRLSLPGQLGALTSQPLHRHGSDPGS
Data set [1] deals with male diet-induced obese F344/Jcl rats. The data set can be described thus: Anorectic effect using male diet-induced obese F344/Jcl rats. The format is in vivo, rat. The note with it: oral, 5 mg/mL suspension in 0.5% methylcellulose at 2 mL/kg, two administrations; food intake for 2 days vs control group. Here is the method: Evaluation of Anorectic Effect Using Male Diet-Induced Obese F344/Jcl Rats
Male diet-induced obese F344/Jcl rats (41-52 weeks old) fed with a high-fat diet (D12451: Research Diets) from 5 weeks old were used. From before the start of experiment, the rats were singly housed, given a powder high-fat diet (D12451M: Research Diets), and habituated to oral administration with tap water. The food intake from the evening of the day before the start of experiment to the next morning was measured, and the rats were grouped based on both the food intake and the body weight of the previous day. In the evening of the day of the start of experiment and the next day, 0.5% methylcellulose solution was orally administered to the control group, and 0.5% methylcellulose suspension of the test compound (5 mg/mL) was orally administered to the compound administration group at 2 mL/kg (6 per group for both control group and compound administration group). The food intake for 2 days from the initial administration was measured. The food intake inhibition rate of each compound administration group to the control group was calculated.

Data set [2] deals with T2, human MCH receptor 1 (MCHR1) (Homo sapiens, UniProt Q99705).
T2 construct: expressed in transfected cells; host or cells: CHO cell clone 57 (described in WO01/82925); membrane fraction
T2 sequence (Q99705 whole entry): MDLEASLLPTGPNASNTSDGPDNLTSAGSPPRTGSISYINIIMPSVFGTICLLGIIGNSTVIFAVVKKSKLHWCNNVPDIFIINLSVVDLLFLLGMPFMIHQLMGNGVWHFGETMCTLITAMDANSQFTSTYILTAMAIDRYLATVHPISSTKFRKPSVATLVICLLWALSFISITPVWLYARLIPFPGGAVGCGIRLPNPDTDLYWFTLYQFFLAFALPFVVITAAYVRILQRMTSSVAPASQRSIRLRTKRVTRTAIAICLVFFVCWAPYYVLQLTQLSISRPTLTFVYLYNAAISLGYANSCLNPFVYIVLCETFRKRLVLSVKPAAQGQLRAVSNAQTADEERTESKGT
The data set can be described thus: Human MCH receptor 1 (MCHR1) competitive inhibitory activity using binding assay. Particulars: test compound 0.1 μM; [125I]-MCH (4-19); human MCHR1-expressing CHO cellular membrane fraction; read-out: Binding inhibition rate % (0.1 μM). How it is done:
Determination of Human MCH Receptor 1 (MCHR1) Competitive Inhibitory Activity of Test Compound Using Binding Assay
1. Preparation of Membrane Fraction
In phosphate buffered saline (pH 7.4) supplemented with 5 mM EDTA (ethylenediaminetetraacetic acid) were respectively suspended human MCHR1-expressing CHO cells (1×10^8 cells) and centrifuged. Homogenate buffer (10 mL, 10 mM NaHCO3, 5 mM EDTA, pH 7.5, 0.5 mM PMSF (phenylmethylsulfonyl fluoride), 20 mg/L leupeptin, 4 mg/L E-64, 1 mg/L pepstatin A) was added to the pellets of the cells and, using Polytron Homogenizer, the mixture was homogenated. The supernatant obtained after centrifugation at 400×g for 10 min was further centrifuged at 100,000×g for 1 hr to give precipitate of the membrane fraction. The precipitate was suspended in 2 mL of assay buffer [20 mM Tris-HCl (pH 7.5), 5 mM EDTA, 0.5 mM PMSF, 20 mg/L leupeptin, 4 mg/L E-64, 1 mg/L pepstatin A]. The membrane fractions were suspended in assay buffer to a protein concentration of 2 mg/mL, and after dispensing, preserved at −80° C. and used upon thawing each time when in use.
The MCHR1 ligand binding inhibitory activity of the test compound was determined as follows.
The mixture was reacted with stirring at room temperature for 1 hr, and the plate was set on FilterMate Harvester (PerkinElmer). […] The glass filter plate was dried, MicroScint 0 (PerkinElmer) was added at 25 μL/well, and the resulting radioactivity was measured by TopCount liquid scintillation counter (PerkinElmer). The binding inhibition rate of the test compound was calculated by the following formula. Binding inhibition(%)=100−(radioactivity upon addition of test compound and hot MCH−radioactivity upon addition of cold MCH and hot MCH solution)/(radioactivity upon addition of DMSO solution and hot MCH−radioactivity upon addition of cold MCH and hot MCH solution)×100

T1 sequence (Q99705 whole entry): as above
Experimental for hERG: A cell strain CYL3038 having hERG stably expressed in CHO cells was purchased from Millipore LIMITED. A subculture of CYL3038 was prepared using Ham's F-12 medium containing 10% FBS and 500 μg/mL Geneticin, under the presence of 5% CO2 at 32° C. hERG current inhibition was measured by PPC mode of IonWorks Quattro (Molecular Devices, Inc.). As an extracellular fluid, PBS (+) was used. As an intracellular fluid, 20 mM HEPES buffer (pH 7.3) containing 140 mM KCl, 2 mM MgCl2 and 1 mM EGTA was used, and the cell was perforated by amphotericin. As the voltage protocol, holding potential was set to −80 mV, prepulsevoltage was set to 40 mV (2 seconds) and test pulsevoltage was set to −50 mV (2 seconds). Current values before and after addition of compound are respectively recorded as pre-compound hERG current and post-compound hERG current.

The inhibition is the drop in the measured response relative to a control, in per cent. On to `Cc1c2cc(-n3ccc(OCc4ccc(Cl)cc4)cc3=O)ccc2nn1C` [Example 1, 4-[(4-chlorobenzyl)oxy]-1-(2,3-dimethyl-2H-indazol-5-yl)pyridin-2(1H)-one], for which the inhibition at 0.1 µM amounted to 83% at human MCHR1 and 72% in data set [2]. For the same compound, the “% hERG inhibition (10 μM)” value at hERG is 22.1%. In data set [1], the “Food intake suppression rate (%)” value is 32.1%.
In the case of `Cc1c2cc(-n3ccc(OCc4ccc(F)cc4)cc3=O)ccc2nn1C1CC1` [Example 6, 1-(2-cyclopropyl-3-methyl-2H-indazol-5-yl)-4-[(4-fluorobenzyl)oxy]pyridin-2(1H)-one], the inhibition at 0.1 µM on human MCHR1 turned out to be 70%; in data set [2] it was 72%. In addition, the “Food intake suppression rate (%)” value in data set [1] stood at 26.4%.
In the same order, the values of `Cc1c2cc(-n3ccc(OCc4csc(C(F)(F)F)c4)cc3=O)ccc2nn1C` [Example 22, 1-(2,3-dimethyl-2H-indazol-5-yl)-4-{[5-(trifluoromethyl)thiophen-3-yl]methoxy}pyridin-2(1H)-one] are 69%, 51% and 50.7%.
The like results for `Cc1c2cc(-n3ccc(OCc4ccc(Br)cc4)cc3=O)ccc2nn1C` [Example 25, 4-[(4-bromobenzyl)oxy]-1-(2,3-dimethyl-2H-indazol-5-yl)pyridin-2(1H)-one] were, in that order, 84%, 57% and 59.8%.
`Cc1c2cc(-n3ccc(OCc4csc(C(F)(F)F)c4)cc3=O)ccc2nn1C1CC1` [Example 44, 1-(2-cyclopropyl-3-methyl-2H-indazol-5-yl)-4-{[5-(trifluoromethyl)thiophen-3-yl]methoxy}pyridin-2(1H)-one]: the inhibition at 0.1 µM worked out at 55% on human MCHR1 and 77% in data set [2]. The “Food intake suppression rate (%)” value in data set [1] worked out at 30.6%.
The like results for `Cc1c2cc(-n3ccc(OCc4csc(C(F)(F)F)n4)cc3=O)ccc2nn1C1CC1` [Example 46, 1-(2-cyclopropyl-3-methyl-2H-indazol-5-yl)-4-{[2-(trifluoromethyl)-1,3-thiazol-4-yl]methoxy}pyridin-2(1H)-one] were, in that order, 78%, 50% and 13.3%.
